Experimental data taken from patent US5688773A, “Method of selectively destroying neoplastic cells” (priority 1994, dated 1997).
Where two headings read alike, the source gives them in different places.

Tests used:
C6VIKWT cells = conditions: colony survival; drug from day 7 for 9-12 days
Description: To measure the ganciclovir sensitivity of colony formation, cells were plated in duplicate at a density of 500 cells per 25 cm^2 culture flask. Seven days later, ganciclovir was added at various concentrations (0, 0.1, 0.5, 1, 10, 50, 100, 300 μM) in quadruplicate and incubation was for 9-12 days, with medium changes every 3-5 days. Cells were then fixed with 100% methanol, and stained with Giemsa (Freshney, R. I., "Culture of Animal Cells," in: A Manual of Basic Techniques, 2d ed., New York, Alan R. Liss, Inc., pp. 170-171 (1987)), and colonies ≥2 mm in diameter were counted.

C6VIK cells = conditions: subcutaneous, nude mice; cited from earlier work
[1] = tested on: C6 cells co-cultured with C6-P450 cells across a filter; experiment: Secretory effect assay (insert system); assay type: cell-based; conditions: Rattus norvegicus
Description: Secretory effect assay: To assess the effect of conditioned medium, cells were co-cultured in dishes using the "insert" system (Falcon). This consists of tissue culture dishes (diameter=3.5 cm), which contain a micropore membrane (pore diameter=0.45 μm) that physically separates cell populations plated into the upper and lower chambers but permits the exchange of components in the medium. C6 cells (3.4×10^5 cells) were plated into the bottom chamber, while C6-P450 (3.4×10^5 cells) or C6-Neo cells (3.4×10^5 cells) were plated into the upper chamber (on top of the filter) in a total volume of 5 mL of medium. After an overnight incubation, 0.5 mM CPA was added to this medium. Four days later, the membrane on which the C6-P450 or C6-Neo cells were growing was removed and then the number of C6 glioma cells in the lower chamber was determined by counting with a Coulter apparatus. Surviving C6 cells were then replated at a density of 2×10^5 cells per 10 cm dish without CPA. Nine days later, these cells were trypsinized and counted using the Coulter apparatus.

9L-Z tumors = experiment: Tumor growth delay study; assay type: in vivo, Fischer 344 rats; conditions: 100 mg/kg single intraperitoneal injection 7 days after implantation; tumors inhibited/total, 7-8 weeks
Description: (§1) Tumor Growth Delay Studies: 9L cells were grown subcutaneously (s.c.) as solid tumors in female Fischer 344 rats. Adult female Fischer 344 rats (120-150g) were inoculated at 2×10^6 cells/s.c. site; cytochrome P450 2B1-negative cells (parental 9L or 9L-Z cells) were injected in one thigh and cytochrome P450 2B1-positive cells (9L-ZP or L450-2 cells) in the other thigh. This strategy was employed to control any potential effects that subcutaneous growth of the 9L tumor might have on liver cytochrome P450-dependent cyclophosphamide activation activity. Drug treatment was initiated seven days after tumor implantation. Rats were randomized and divided into two groups. One group was treated with cyclophosphamide at 100 mg/kg body weight given as a single intraperitoneal injection. Another group was injected with saline as control. Tumor size was monitored by caliper measurement at times ranging up to 7-8 weeks, at which point the animals were sacrificed.

9L tumors = experiment: Tumor growth delay study; assay type: in vivo, Fischer 344 rats; conditions: 100 mg/kg single intraperitoneal injection 7 days after implantation; tumors inhibited/total, 7-8 weeks
Description: as §1

L450-2 tumors = experiment: Tumor growth delay study; assay type: in vivo, Fischer 344 rats; conditions: 100 mg/kg single intraperitoneal injection 7 days after implantation; tumors inhibited/total, 7-8 weeks
Description: as §1

9L-ZP tumors = experiment: Tumor growth delay study; assay type: in vivo, Fischer 344 rats; conditions: 100 mg/kg single intraperitoneal injection 7 days after implantation; tumors inhibited/total, 7-8 weeks
Description: as §1

C6 cells [2] = experiment: Conditioned medium from co-cultures added to naive C6 cells; assay type: cell-based, rat; conditions: CM from co-cultures with 0, 10, or 50% P450 2B1 cells after four-day CPA
Description: Co-culture assay: Co-cultures of C6-P450 and C6 cells were incubated in triplicate at different ratios (where 0, 10, 50, 90, and 100% of the cells were C6-P450 cells) to achieve a total number of 2×10^6 cells/10 cm dish. After 24 hours, 0.5 mM CPA was added and four days later, cells were counted as previously described. To compare the killing achieved by cell contact with that obtained by exposure to conditioned medium, the supernatant from each co-culture was harvested, filtered through 0.45 μm membrane filters, mixed in a 1:1 ratio with 5 mL of fresh medium and added to overnight cultures of C6 cells (2×10^6 cells/10 cm dish in triplicate). Four days later, C6 cells were washed, harvested and counted. To determine the specificity of the cell-mediated killing effect from the co-culture assays, C6 cells were incubated overnight with C6 cells that expressed the neomycin phosphotransferase gene (C6-Neo), with irradiated C6 cells, with irradiated C6-Neo, and with irradiated C6-P450 cells. γ-irradiation was performed by exposing cells to a total of 6000 rads emitted by a ^51 chromium source.

[3] = tested on: C450-8 (C6-derived clone, cytochrome P450 2B1); experiment: Growth in the presence of 500 μM cyclophosphamide; conditions: 500 μM CPA, four days
[4] = tested on: mixed culture of 9L and 9L-ZP cells; experiment: Cytotoxicity toward mixed cultures; assay type: cell-based, rat; conditions: Rattus norvegicus, 120 h; equal numbers of 9L and 9L-ZP; 1 mM cyclophosphamide, 5 days; read-out: total cell population eradicated
Description: FIG. 28 is a bar graph depicting the cytotoxicity of oxazaphosphorines toward mixed cultures of 9L and 9L-ZP cells. Equal numbers of parental 9L cells were mixed with 9L-ZP cells (total initial cell number=1×10^5 /30 mm tissue culture dish). […] Cell numbers were determined 5 days after beginning drug treatment. Data (mean ±range of duplicates) are expressed as growth ratio (%) relative to drug-free controls.
To test for drug sensitivity, 1×10^5 cells were plated in 30-mm tissue culture plates (Falcon 3046) in duplicate. Drugs were added 18-24 hours after seeding. Cells were allowed to grow for times ranging up to 5 days after drug treatment, and the final cell number was then determined. Cells were rinsed with phosphate buffered saline or Hank's buffered saline, dispersed using trypsin-EDTA (GIBCO/BRL, Inc.), and then counted with a hemocytometer. Results are expressed as a growth ratio, i.e., the number of cells in plates containing drug as a percentage of the corresponding drug-free controls (mean±range of duplicate determinations).

C450-8 cells = experiment: cells; conditions: Rattus norvegicus, read-out: CPA concentration reducing the number of cells by 50%
Description: Cyclophosphamide Dose-Response Assay: For dose-response curves, cells were plated at a density of 2×10^5 cells/100 mm dish (Corning) in quintuplicate. Two days later CPA was added to final concentrations of 0-100 μM. Five days after plating, the monolayers were rinsed twice with Hank's buffered saline (GIBCO) to remove dead cells. Monolayers were dispersed using trypsin-EDTA (GIBCO), and cell numbers were determined using a Coulter counter (Coulter Electronics Inc.).

C6 cells [5] = experiment: Cyclophosphamide dose-response assay; assay type: cell-based; conditions: Rattus norvegicus, up to 1 mM CPA, read-out: cells that survived incubation

Nc1nc(O)c2ncn(COC(CO)CO)c2n1 [ganciclovir]
fold more sensitive than parental line C6VIK at 50% surviving colonies (C6VIKWT cells): 300 fold
Tumor growth (C6VIK cells): inhibited tumor growth

O=P1(N(CCCl)CCCl)NCCCO1 (stereo not shown) [cyclophosphamide]
inhibition at 500 µM ([1]; C6, 96 h, 0.5 mM CPA, 1:1 ratio, four days, read-out: decrease in the number of C6 cells): ~50%
inhibition at 500 µM ([1]; C6, 216 h, replated without CPA, nine days, read-out: decrease in C6 cell number after trypsinization and replating): ~90%
Complete Tumor Growth Inhibition (9L-Z tumors): 0/9
Complete Tumor Growth Inhibition (9L tumors): 0/11
Complete Tumor Growth Inhibition (L450-2 tumors): 11/11
Complete Tumor Growth Inhibition (9L-ZP tumors): 8/9
Inhibition of proliferation of C6 cells (C6 cells [2]): no inhibition
Cell destruction [3]: destroyed completely
cytotoxicity at 1000 µM [4]: ~80%
IC50 (C450-8 cells): 27 µM
viability at 1000 µM (C6 cells [5]): ≥ 80%
